Experimental data as given in ChEMBL document CHEMBL4507310, “Data for DCP probe A-1211212” (2021).

Assays:
[1] = target: T1, 5-hydroxytryptamine receptor 2C (Homo sapiens) (UniProt P28335); test: 5-HT2C (h) Eurofins-Cerep binding assay; set-up: ligand concentration 1 nM; details: filed as antagonist, Compound concentration 10.0 uM
T1 sequence (whole entry): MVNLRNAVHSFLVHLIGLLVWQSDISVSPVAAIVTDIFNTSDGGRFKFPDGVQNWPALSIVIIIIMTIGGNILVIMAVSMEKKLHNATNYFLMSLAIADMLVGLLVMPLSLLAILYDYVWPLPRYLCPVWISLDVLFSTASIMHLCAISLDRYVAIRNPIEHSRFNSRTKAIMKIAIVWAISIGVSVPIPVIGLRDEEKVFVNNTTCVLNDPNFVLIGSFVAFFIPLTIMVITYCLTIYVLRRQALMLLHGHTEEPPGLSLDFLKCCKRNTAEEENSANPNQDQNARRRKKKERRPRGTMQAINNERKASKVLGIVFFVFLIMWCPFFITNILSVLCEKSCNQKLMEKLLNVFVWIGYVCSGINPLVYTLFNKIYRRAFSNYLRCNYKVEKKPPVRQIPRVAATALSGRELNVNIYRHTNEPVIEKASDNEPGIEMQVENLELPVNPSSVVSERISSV

[2] = target: Membrane-associated tyrosine- and threonine-specific cdc2-inhibitory kinase (Homo sapiens) (UniProt Q99640); details: Compound concentration 1000.0 nM
[3] = target: Histamine H2 receptor (Homo sapiens) (UniProt P25021); details: Compound concentration 10.0 uM
[4] = target: Serine/threonine-protein kinase SIK2 (Homo sapiens) (UniProt Q9H0K1); details: Compound concentration 1000.0 nM
[5] = target: Mitogen-activated protein kinase 10 (Homo sapiens) (UniProt P53779); details: Compound concentration 1000.0 nM
[6] = target: Tyrosine-protein kinase Mer (Homo sapiens) (UniProt Q12866); details: Compound concentration 1000.0 nM
[7] = target: MAO-A (amine oxidase [flavin-containing] A) (Rattus norvegicus, UniProt P21396); test: MAO-A Eurofins-Cerep binding assay; set-up: incubation time 60 min, incubation temperature 37°C, ligand concentration 10 nM; details: rat cerebral cortex, probe [3H]Ro 41-1049 (10 nM), compound concentration 10 uM, read-out: % Inhibition of Control Specific Binding (Mean n=2)
[8] = target: Calcium/calmodulin-dependent protein kinase type II subunit beta (Homo sapiens) (UniProt Q13554); details: Compound concentration 1000.0 nM
[9] = target: Serine/threonine-protein kinase SIK1 (Homo sapiens) (UniProt P57059); details: Compound concentration 1000.0 nM
[10] = target: Tyrosine-protein kinase CSK (Homo sapiens) (UniProt P41240); details: Compound concentration 1000.0 nM
[11] = target: Histamine H1 receptor (Homo sapiens) (UniProt P35367); test: H1 (h) Eurofins-Cerep binding assay; set-up: ligand concentration 1 nM; details: filed as antagonist, Compound concentration 10.0 uM
[12] = target: Activin receptor type-1 (Homo sapiens) (UniProt Q04771); details: Compound concentration 1000.0 nM
[13] = target: Cholecystokinin receptor type A (Homo sapiens) (UniProt P32238); test: CCK1 (CCKA) (h) Eurofins-Cerep binding assay; set-up: ligand concentration 0.08 nM; details: filed as agonist, Compound concentration 10.0 uM
[14] = target: Bone morphogenetic protein receptor type-1B (Homo sapiens) (UniProt O00238); details: Compound concentration 1000.0 nM
[15] = test system: Tyrosine-protein kinase ABL1 (Homo sapiens), P00519 [F317L]; details: Compound concentration 1000.0 nM
[16] = target: Serine/threonine-protein kinase WNK2 (Homo sapiens) (UniProt Q9Y3S1); details: Compound concentration 1000.0 nM
[17] = target: T2, Muscarinic acetylcholine receptor M4 (Homo sapiens) (UniProt P08173); details: Compound concentration 10.0 uM
T2 sequence (whole entry): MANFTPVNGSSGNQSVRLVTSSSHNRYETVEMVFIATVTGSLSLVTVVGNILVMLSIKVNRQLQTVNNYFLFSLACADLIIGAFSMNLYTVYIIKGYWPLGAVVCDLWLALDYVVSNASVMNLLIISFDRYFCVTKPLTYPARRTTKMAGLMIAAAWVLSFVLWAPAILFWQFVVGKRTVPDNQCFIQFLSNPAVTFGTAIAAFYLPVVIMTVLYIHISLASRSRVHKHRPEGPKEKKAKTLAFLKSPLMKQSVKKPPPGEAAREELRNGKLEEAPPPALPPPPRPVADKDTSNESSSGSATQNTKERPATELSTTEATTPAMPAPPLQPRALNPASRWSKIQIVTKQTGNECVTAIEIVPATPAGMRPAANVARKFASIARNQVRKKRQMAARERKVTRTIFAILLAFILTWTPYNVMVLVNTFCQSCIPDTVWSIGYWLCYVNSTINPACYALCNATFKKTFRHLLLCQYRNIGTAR

[18] = target: Sodium-dependent serotonin transporter (Homo sapiens) (UniProt P31645); details: Compound concentration 10.0 uM
[19] = target: Serine/threonine-protein kinase 36 (Homo sapiens) (UniProt Q9NRP7); details: Compound concentration 1000.0 nM
[20] = target: Glycogen synthase kinase-3 alpha (Homo sapiens) (UniProt P49840); details: Compound concentration 1000.0 nM
[21] = test system: Mast/stem cell growth factor receptor Kit (Homo sapiens), P10721 [D816V]; details: Compound concentration 1000.0 nM
[22] = target: cAMP-dependent protein kinase catalytic subunit alpha (Homo sapiens) (UniProt P17612); details: Compound concentration 1000.0 nM
[23] = target: Muscarinic acetylcholine receptor M3 (Homo sapiens) (UniProt P20309); test: M3 (h) Eurofins-Cerep binding assay; set-up: ligand concentration 0.2 nM; details: filed as antagonist, Compound concentration 10.0 uM
[24] = test system: Proto-oncogene tyrosine-protein kinase receptor Ret (Homo sapiens), P07949 [V804M]; details: Compound concentration 1000.0 nM
[25] = target: Serine/threonine-protein kinase ICK (Homo sapiens) (UniProt Q9UPZ9); details: Compound concentration 1000.0 nM
[26] = target: Serine/threonine-protein kinase DCLK2 (Homo sapiens) (UniProt Q8N568); details: Compound concentration 1000.0 nM
[27] = target: Dual specificity mitogen-activated protein kinase kinase 2 (Homo sapiens) (UniProt P36507); details: Compound concentration 1000.0 nM
[28] = target: Tyrosine-protein kinase JAK2 (Homo sapiens) (UniProt O60674); details: Compound concentration 1000.0 nM
[29] = test system: Tyrosine-protein kinase ABL1 (Homo sapiens), P00519 [T315I]; details: Compound concentration 1000.0 nM
[30] = target: Mitogen-activated protein kinase 6 (Homo sapiens) (UniProt Q16659); details: Compound concentration 1000.0 nM
[31] = target: Serine/threonine-protein kinase LATS1 (Homo sapiens) (UniProt O95835); details: Compound concentration 1000.0 nM

Chain of Tyrosine-protein kinase JAK2 (Homo sapiens) (O60674 whole entry): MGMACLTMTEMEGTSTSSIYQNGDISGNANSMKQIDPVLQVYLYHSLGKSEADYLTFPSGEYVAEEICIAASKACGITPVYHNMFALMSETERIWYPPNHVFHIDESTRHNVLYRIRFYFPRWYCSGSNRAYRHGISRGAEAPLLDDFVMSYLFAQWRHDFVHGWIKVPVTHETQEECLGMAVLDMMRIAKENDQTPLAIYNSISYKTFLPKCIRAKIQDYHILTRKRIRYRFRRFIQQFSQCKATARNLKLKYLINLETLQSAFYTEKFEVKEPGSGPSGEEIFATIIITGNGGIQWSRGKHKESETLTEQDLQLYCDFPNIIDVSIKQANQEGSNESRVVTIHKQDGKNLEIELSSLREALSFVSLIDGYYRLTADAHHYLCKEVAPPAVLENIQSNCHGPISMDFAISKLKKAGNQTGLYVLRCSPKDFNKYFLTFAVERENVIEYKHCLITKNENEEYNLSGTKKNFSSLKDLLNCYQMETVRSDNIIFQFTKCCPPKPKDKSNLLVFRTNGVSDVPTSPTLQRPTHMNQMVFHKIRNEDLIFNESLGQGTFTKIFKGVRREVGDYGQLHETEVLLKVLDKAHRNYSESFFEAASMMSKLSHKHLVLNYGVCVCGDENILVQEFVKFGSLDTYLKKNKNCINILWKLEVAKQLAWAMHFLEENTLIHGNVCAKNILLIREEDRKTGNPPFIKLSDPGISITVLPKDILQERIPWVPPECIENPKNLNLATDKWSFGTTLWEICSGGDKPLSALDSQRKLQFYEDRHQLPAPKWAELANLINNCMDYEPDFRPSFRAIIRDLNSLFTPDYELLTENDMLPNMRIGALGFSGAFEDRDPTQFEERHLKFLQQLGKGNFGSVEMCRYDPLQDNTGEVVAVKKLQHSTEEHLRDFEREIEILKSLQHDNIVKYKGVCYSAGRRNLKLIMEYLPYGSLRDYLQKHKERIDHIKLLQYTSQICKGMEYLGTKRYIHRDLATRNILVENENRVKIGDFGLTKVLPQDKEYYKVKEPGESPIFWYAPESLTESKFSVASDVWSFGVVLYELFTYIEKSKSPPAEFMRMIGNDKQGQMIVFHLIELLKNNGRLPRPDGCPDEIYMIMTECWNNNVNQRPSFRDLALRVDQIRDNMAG
Chain of Sodium-dependent serotonin transporter (Homo sapiens) (P31645 whole entry, looked up): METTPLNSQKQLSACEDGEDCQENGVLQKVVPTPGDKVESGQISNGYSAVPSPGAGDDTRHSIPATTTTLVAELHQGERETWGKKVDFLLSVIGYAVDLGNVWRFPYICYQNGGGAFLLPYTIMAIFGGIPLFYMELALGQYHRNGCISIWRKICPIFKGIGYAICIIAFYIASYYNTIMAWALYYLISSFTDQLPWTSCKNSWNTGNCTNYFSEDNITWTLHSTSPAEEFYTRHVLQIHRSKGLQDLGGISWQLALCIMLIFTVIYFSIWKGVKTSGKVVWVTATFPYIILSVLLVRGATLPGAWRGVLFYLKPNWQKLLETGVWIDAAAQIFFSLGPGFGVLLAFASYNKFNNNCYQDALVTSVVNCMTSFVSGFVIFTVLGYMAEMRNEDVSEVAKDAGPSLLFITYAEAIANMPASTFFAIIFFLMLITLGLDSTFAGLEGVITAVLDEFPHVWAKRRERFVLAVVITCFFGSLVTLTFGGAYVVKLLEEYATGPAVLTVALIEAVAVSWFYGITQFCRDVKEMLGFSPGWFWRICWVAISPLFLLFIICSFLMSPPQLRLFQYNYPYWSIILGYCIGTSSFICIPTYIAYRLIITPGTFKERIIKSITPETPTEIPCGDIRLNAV
Chain of Histamine H2 receptor (Homo sapiens) (P25021 whole entry): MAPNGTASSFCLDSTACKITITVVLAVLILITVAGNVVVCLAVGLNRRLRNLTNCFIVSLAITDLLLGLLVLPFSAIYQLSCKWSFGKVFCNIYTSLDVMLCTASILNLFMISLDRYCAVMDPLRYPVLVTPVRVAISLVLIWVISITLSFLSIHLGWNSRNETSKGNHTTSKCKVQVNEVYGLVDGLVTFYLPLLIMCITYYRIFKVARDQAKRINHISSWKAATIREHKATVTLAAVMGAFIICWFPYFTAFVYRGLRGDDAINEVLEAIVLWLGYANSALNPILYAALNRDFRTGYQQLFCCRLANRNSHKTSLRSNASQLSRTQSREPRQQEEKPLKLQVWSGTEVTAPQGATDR
Chain of Serine/threonine-protein kinase ICK (Homo sapiens) (Q9UPZ9 whole entry): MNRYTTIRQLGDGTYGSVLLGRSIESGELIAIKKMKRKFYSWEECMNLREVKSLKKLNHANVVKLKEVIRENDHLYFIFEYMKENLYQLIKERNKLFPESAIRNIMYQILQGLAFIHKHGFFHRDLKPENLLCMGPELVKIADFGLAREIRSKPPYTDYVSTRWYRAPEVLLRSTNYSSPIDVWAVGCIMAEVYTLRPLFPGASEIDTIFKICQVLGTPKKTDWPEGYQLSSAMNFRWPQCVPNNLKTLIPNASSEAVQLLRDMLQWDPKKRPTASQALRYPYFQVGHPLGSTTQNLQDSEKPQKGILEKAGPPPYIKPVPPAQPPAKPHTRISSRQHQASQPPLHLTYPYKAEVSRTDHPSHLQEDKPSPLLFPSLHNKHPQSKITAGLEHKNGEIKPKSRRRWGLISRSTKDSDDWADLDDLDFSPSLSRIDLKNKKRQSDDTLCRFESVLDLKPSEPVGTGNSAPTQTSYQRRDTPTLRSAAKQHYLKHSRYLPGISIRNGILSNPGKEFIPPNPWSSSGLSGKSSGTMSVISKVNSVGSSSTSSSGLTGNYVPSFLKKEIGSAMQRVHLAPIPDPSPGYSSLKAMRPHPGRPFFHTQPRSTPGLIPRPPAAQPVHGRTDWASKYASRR
Chain of Serine/threonine-protein kinase SIK2 (Homo sapiens) (Q9H0K1 whole entry, looked up): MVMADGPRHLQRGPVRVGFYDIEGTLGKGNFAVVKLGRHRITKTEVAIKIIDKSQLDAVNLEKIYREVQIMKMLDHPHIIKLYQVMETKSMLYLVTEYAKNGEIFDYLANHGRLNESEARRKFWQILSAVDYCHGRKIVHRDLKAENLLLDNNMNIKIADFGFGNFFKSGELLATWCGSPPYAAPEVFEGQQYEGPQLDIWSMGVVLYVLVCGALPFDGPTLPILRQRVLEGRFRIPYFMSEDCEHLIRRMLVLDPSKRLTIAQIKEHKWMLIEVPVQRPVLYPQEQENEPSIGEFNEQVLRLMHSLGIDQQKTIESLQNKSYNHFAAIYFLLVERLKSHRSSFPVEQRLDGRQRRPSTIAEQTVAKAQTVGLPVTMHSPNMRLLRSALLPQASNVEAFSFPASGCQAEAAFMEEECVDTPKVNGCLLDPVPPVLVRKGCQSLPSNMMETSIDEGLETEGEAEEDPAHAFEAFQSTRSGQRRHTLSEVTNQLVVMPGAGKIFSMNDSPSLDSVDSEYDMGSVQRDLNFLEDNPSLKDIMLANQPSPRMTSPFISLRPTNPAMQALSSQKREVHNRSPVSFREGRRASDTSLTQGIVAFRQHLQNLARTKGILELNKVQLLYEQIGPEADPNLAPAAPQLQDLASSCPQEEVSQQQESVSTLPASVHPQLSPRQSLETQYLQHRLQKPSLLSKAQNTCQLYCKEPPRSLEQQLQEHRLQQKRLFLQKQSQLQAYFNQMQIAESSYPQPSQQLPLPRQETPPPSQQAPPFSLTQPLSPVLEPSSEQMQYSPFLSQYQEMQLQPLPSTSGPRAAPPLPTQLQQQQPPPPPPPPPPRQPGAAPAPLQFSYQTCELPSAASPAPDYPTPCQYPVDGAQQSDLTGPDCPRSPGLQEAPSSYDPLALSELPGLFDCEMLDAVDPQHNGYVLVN
Chain of Cholecystokinin receptor type A (Homo sapiens) (P32238 whole entry): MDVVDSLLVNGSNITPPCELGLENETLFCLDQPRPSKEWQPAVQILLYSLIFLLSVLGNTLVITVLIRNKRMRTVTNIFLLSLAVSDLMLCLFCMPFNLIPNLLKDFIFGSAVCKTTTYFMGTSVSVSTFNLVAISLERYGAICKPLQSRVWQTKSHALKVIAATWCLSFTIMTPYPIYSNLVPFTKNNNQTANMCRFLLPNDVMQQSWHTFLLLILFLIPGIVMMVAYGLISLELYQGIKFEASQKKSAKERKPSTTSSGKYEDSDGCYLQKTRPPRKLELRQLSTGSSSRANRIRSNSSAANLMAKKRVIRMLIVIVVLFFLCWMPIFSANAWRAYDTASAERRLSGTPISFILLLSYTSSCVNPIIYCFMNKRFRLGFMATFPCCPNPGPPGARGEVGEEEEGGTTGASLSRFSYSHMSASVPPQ
Chain of Activin receptor type-1 (Homo sapiens) (Q04771 whole entry): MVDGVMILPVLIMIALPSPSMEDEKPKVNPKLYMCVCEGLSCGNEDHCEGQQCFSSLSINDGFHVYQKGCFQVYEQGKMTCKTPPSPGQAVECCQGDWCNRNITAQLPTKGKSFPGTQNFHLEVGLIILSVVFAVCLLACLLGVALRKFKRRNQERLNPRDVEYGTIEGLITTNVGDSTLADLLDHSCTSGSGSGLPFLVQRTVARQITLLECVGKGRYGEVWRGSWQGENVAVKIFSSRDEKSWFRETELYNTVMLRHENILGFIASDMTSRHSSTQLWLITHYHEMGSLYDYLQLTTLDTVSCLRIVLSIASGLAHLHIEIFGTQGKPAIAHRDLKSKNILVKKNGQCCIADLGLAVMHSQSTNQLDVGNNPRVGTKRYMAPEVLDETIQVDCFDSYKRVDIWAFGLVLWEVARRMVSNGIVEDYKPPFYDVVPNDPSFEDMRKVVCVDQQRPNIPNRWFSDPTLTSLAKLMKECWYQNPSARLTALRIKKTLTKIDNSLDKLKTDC
Chain of Dual specificity mitogen-activated protein kinase kinase 2 (Homo sapiens) (P36507 whole entry): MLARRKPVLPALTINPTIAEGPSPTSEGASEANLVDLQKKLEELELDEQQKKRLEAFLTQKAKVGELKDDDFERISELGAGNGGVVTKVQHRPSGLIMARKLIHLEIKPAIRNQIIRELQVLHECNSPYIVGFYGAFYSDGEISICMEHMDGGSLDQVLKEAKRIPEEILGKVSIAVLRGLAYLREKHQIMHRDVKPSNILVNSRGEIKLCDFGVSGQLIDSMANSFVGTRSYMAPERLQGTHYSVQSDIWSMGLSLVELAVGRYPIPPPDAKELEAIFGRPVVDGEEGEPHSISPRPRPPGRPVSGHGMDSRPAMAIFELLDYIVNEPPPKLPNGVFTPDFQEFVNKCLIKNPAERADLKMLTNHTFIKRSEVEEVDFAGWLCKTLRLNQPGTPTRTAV

SMILES: O=C(NS(=O)(=O)c1ccc(NCC2CCOCC2)c([N+](=O)[O-])c1)c1ccc(N2CCN(Cc3ccc(C(F)(F)F)cc3-c3ccc(Cl)cc3)CC2)cc1Oc1cnc2[nH]ccc2c1 [A-1210227]
- % Inhibition of Control Specific Binding (Mean n=2) [1]: 3.7%
- residual activity [2]: 90%
- inhibition [3]: 8.95%
- residual activity [4]: 100%
- residual activity [5]: 82%
- residual activity [6]: 100%
- inhibition at 60 min, 10 µM [7]: 8.7%
- residual activity [8]: 96%
- residual activity [9]: 90%
- residual activity [10]: 87%
- % Inhibition of Control Specific Binding (Mean n=2) [11]: 11.2%
- residual activity [12]: 89%
- % Inhibition of Control Specific Binding (Mean n=2) [13]: -44.1%
- residual activity [14]: 89%
- residual activity [15]: 91%
- residual activity [16]: 75%
- inhibition [17]: -5.79%
- inhibition [18]: -8.19%
- residual activity [19]: 88%
- residual activity [20]: 100%
- residual activity [21]: 100%
- residual activity [22]: 76%
- % Inhibition of Control Specific Binding (Mean n=2) [23]: 8.9%
- residual activity [24]: 100%
- residual activity [25]: 84%
- residual activity [26]: 100%
- residual activity [27]: 100%
- residual activity [28]: 90%
- residual activity [29]: 82%
- residual activity [30]: 100%
- residual activity [31]: 100%

SMILES: CO[C@H]1CC[C@H](CNc2ccc(S(=O)(=O)NC(=O)c3ccc(N4CCN(CC5=C(c6ccc(Cl)cc6)CC(C)(C)CC5)CC4)cc3Oc3cnc4[nH]ccc4c3)cc2[N+](=O)[O-])CC1 [A-1211212]
- % Inhibition of Control Specific Binding (Mean n=2) [1]: -4.1%
- residual activity [2]: 100%
- inhibition [3]: 13.6%
- residual activity [4]: 100%
- residual activity [5]: 77%
- residual activity [6]: 85%
- inhibition at 60 min, 10 µM [7]: -5.9%
- residual activity [8]: 80%
- residual activity [9]: 90%
- residual activity [10]: 76%
- % Inhibition of Control Specific Binding (Mean n=2) [11]: -2.2%
- residual activity [12]: 84%
- % Inhibition of Control Specific Binding (Mean n=2) [13]: 1.6%
- residual activity [14]: 92%
- residual activity [15]: 100%
- residual activity [16]: 76%
- inhibition [17]: -0.31%
- inhibition [18]: 25.1%
- residual activity [19]: 71%
- residual activity [20]: 100%
- residual activity [21]: 100%
- residual activity [22]: 78%
- % Inhibition of Control Specific Binding (Mean n=2) [23]: 10.3%
- residual activity [24]: 93%
- residual activity [25]: 68%
- residual activity [26]: 100%
- residual activity [27]: 100%
- residual activity [28]: 89%
- residual activity [29]: 100%
- residual activity [30]: 81%
- residual activity [31]: 87%
